Key:
Assay type in all cases: cell-based, Mouse
4T1 cells [1] = assay: RNA sequencing and analysis (DEGs, GSEA); conditions: 6.25 μM, 12 h, RNA-seq
Method: To understand the effect of Rhein-DCA conjugate on the energy flow of glycolysis in cancer cells, we performed RNA sequencing analysis on 4T1 cell lines to analyze the genome. After various treatments for 12 h, all samples were clustered via principal component analysis (PCA) (Figure S12). […] Furthermore, the DEGs involved in glycolysis pathway of kyoto encyclopedia of genes and genomes (KEGG) databases were analyzed (Figure 2G). […] But as a pyruvate analogue, DCA led to the inactivation of PDK1 by binding to the pyruvate-binding pocket of PDK1 protein, together with down-regulation of PDK1 gene, thus leading more prominent restraint of glycolysis.
We next investigated whether the OXPHOS route would be further undermined by Rhein-DCA conjugate when the glycolysis was blocked. […] Thus, it was imperative to simultaneously halt glycolysis and OXPHOS to induce energy obstruction and apoptosis.
4T1 cells were seeded in 10 cm culture dishes and cultured until the confluency reached approximately 80%. The cells were treated with PBS, DCA, rhein, and Rhein-DCA conjugate (at a concentration of 6.25 μM) for 12 h. After that, the cells were collected and suspended in TRIzol Reagent for RNA sequencing. All samples were sent to Shanghai Majorbio Bio-pharm Biotechnology Co., Ltd. (Shanghai, P. R. China) for detection. Total RNA was extracted from 4T1 cells and was measured using the nanodrop-2000. The quality of RNA was evaluated by agarose gel electrophoresis and analyzed with Agilent5300. cDNA libraries were constructed according to the Illumina stranded mRNA prep, Ligation (USA) protocol. The DNA was further enriched by PCR amplification and purified by 2% Low Range Ultra Agarose. Clusters were generated by Bridge PCR on the cBot after being quantified by Qubit 4.0, and sequenced with NovaSeq X Plus platform (PE150). The differential expression analysis of various gene expressions was performed using DESeq2. The GO functional enrichment and KEGG pathway analysis were conducted on Goatools and Python scipy software.

4T1 cells [2] = assay: Oxygen consumption rate (Seahorse); conditions: 6.25 μM, 24 h
Excerpt: TMRE is a lipophilic cationic fluorescent probe (Ex = 550 nm, Em = 575 nm). The accumulation of TMRE within the mitochondria would reduce with the mitochondrial depolarization, resulting in a decrease in fluorescence intensity. […] The integrity of mitochondria is significant for mitochondrial bioenergy production. Given the influence of ETC, NADH dehydrogenase, ATP synthase and the decrease of Δψm, we speculated that the ATP production from OXPHOS would be hindered by Rhein-DCA conjugate. Mitochondrial bioenergetic processes of 4T1 cells was measured by oxygen consumption rate (OCR) to reflect the capability of OXPHOS.
The mitochondrial bioenergetics of 4T1 cells was investigated by Seahorse Extracellular Flux analyser. 4T1 cells were seeded in 24-well plates (Seahorse Bioscience) at a density of 2 × 10^4 cells per well and incubated for 24 h at 37 °C in 5% CO2 atmosphere. The cells were treated with indicated drugs at a concentration of 6.25 μM for 24 h. At the same time, XF sensor cartridges were hydrated overnight in a CO2-free environment. The cells were cultured in the incubator for 1 h at 37 °C without CO2 after washed with Seahorse XF assay medium. Three baseline measurements of OCR were detected with Seahorse XFe24 analyzer when the oligomycin (1.0 μM, ATP synthase complex inhibitor), FCCP (1.0 μM, ATP synthesis uncoupler […]) and the mixture of antimycin-A (1.0 μM, inhibitor of complex III) and rotenone (1.0 μM, inhibitor that prevents the transfer of electrons from the Fe-S center in complex I to ubiquinone) were sequentially injected for the detection of the oxygen consumption rate.

4T1 cells [3] = assay: Immunogenic cell death detection in vitro (HMGB1, CRT, extracellular ATP)
Excerpt: It is known that mitochondrial dysfunction occasioned by ROS triggers immunogenic cell death (ICD), characterized by the release of DAMPs from tumor cells, such as high mobility group box 1 (HMGB1), calreticulin (CRT) and ATP. These DAMPs directly reactivated anti-tumor immune response of TAMs of in vivo [33]. Given the encouraging results of ROS generation, the ICD effect of Rhein-DCA conjugate was consequently explored in vitro. HMGB1 is a type of nuclear protein, which would be released to extracellular during the ICD process. […] This was because rhein, DCA, and the R + D cannot induce adequate production of ROS and sufficient ATP depletion (Figure 5F). We further detected the HMGB1 content in the cell culture media with an ELISA kit. […] This further confirmed that Rhein-DCA effectively promoted the release of HMGB1 from the cell nucleus to the extracellular space (Figure S20). Unlike HMGB1, abundant CRT often exposed on the cell membrane surface of tumor cells. Flow cytometry was employed to analyze CRT protein of 4T1 cells. […] The secreted ATP from 4T1 cells with immunogenicity was further measured to evaluate the ICD effect after being cultured with various drugs for 6, 12 and 24 h. […] There was no apparent distinction between rhein, DCA, R + D groups and the control group when co-cultured for 6 or 12 h. A slight difference was observed until the cultivation time was prolonged to 24 h. […] This reminded us that the Rhein-DCA conjugate may enhance tumor treatment by promoting ICD-mediated immunotherapy.
4T1 cells were seeded in 6-well plates and confocal dishes with an identical density of 10 × 10^4 cells per well for 24 h cultivation. The cells were processed with indicated drugs at a concentration of 6.25 μM for another 24 h. The cells were washed twice with PBS and then fixed with 4%-paraformaldehyde (1 mL) for 15 min at 37 °C, followed by two washes with PBS. (1) The cells on confocal dishes were next permeabilized with triton-X-100 for 15 min at room temperature, blocked with BSA solution (5% in PBS) for 1 h at room temperature, and further incubated with rabbit anti-mouse HMGB-1 (1:500) overnight at 4 °C. Afterwards, the cells were incubated with secondary antibody (1:500) for 1 h at room temperature, washed with PBS, and then stained with Hoechst 33342 (10 μg/mL) for 10 min in the dark at room temperature. Finally, confocal microscope was employed to observe the HMGB1 protein within the cells. The secretion of HMGB1 in culture medium was detected by ELISA assay. The culture media was collected and centrifuged at 1000 G for 20 min, the supernatant was collected and detected with ELISA kit according to the manufacturer's protocol. (2) The cells in the 6-well plates were collected in 1.5 mL tubes, stained with rabbit anti-mouse calreticulin (1:1000) for 30 min at 4 °C, washed twice with PBS, and then analyzed with flow cytometry. (3) For the extracellular ATP content, the cells were cultured for 6, 12 and 24 h at 37 °C, and the medium were collected and centrifuged at 1000 G for 20 min, the supernatant was collected and detection with ELISA kit according to the manufacturer's protocol.

Structure (SMILES)	PDK1 gene expression (4T1 cells [1])	effect on OCR / cellular OXPHOS (basal respiration, ATP production, maximal respiration) (4T1 cells [2])	HMGB1 in cell nucleus (CLSM red fluorescence) (4T1 cells [3]; 6.25 μM, 24 h)	surface-exposed CRT (4T1 cells [3]; 6.25 μM, 24 h, flow cytometry)	HMGB1 secreted into the culture medium (ELISA) (4T1 cells [3]; 6.25 μM, 24 h, vs control, rhein, DCA, R + D)	extracellular ATP in supernatants (4T1 cells [3]; 6 h to 24 h, vs other groups)
O=C(O)C(Cl)Cl [DCA, Dichloroacetate]	down-regulated	minor effect	almost completely located in nuclei	–	–	–
O=C(O)c1cc(O)c2c(c1)C(=O)c1cccc(O)c1C2=O [Rhein, 4,5-dihydroxyanthraquinone-2-carboxylic acid]	down-regulation	moderate effects	almost completely located in nuclei	–	–	–
O=C(OCCOC(=O)C(Cl)Cl)c1cc(O)c2c(c1)C(=O)c1cccc(O)c1C2=O [Rhein-DCA]	significant down-regulation	complete disruption	disappeared	44%	increased significantly	higher

Reference: paper PMC12036875, “Mitochondria-targeting natural product rhein conjugated with dichloroacetate as the dual inhibitor of glycolysis and oxidative phosphorylation to off energize cancer cells and induce ROS storm” (Theranostics, 2025)
